Experiment: xn = mol fraction of the nth substance listed
Details: Liquid, Vibrating tube method, x1 = 1

CCO [ethanol] + CCCCCCC
mass density [kg/m3]
Details | 293.15 K | 303.15 K | 313.15 K | 323.15 K | 333.15 K
100 kPa | 789.4 | 781.1 | 772.3 | 763.1 | 754.2
5000 kPa | 793.5 | 785.7 | 776.9 | 768 | 759.4
10000 kPa | 797.5 | 789.8 | 781.5 | 772.9 | 764.6
15000 kPa | 801.4 | 794 | 785.8 | 777.3 | 769.4
20000 kPa | 805.2 | 797.8 | 789.8 | 781.4 | 773.8
25000 kPa | 808.7 | 801.6 | 793.7 | 785.7 | 777.8
30000 kPa | 812.1 | 805 | 797.4 | 789.4 | 781.7
35000 kPa | 815.3 | 808.5 | 801 | 793.1 | 785.6
40000 kPa | 818.6 | 811.8 | 804.4 | 796.7 | 789.3
45000 kPa | 821.6 | 814.9 | 807.8 | 800.1 | 792.8
50000 kPa | 824.6 | 817.9 | 810.8 | 803.5 | 796.3
55000 kPa | 827.5 | 821.1 | 813.7 | 806.6 | 799.7
60000 kPa | 830.2 | 824 | 816.6 | 809.7 | 802.9
65000 kPa | 832.9 | 826.7 | 819.5 | 812.6 | 806

— the NIST ThermoML archive (doi:10.1021/je050261u)
